{"source": "paper PMC2914821", "about": "(Biochemistry, 2010)", "molecules": {"B1": {"name": "β1(1–194): truncated sGC β1 heme domain corresponding to the H-NOX domain (protein, UniProt Q02153 1-194, looked up, fragment)", "chain": "MYGFVNHALELLVIRNYGPEVWEDIKKEAQLDEEGQFLVRIIYDDSKTYDLVAAASKVLNLNAGEILQMFGKMFFVFCQESGYDTILRVLGSNVREFLQNLDALHDHLATIYPGMRAPSFRCTDAEKGKGLILHYYSEREGLQDIVIGIIKTVAQQIHGTEIDMKVIQQRNEECDHTQFLIEEKESKEEDFYED", "modifications": "H-NOX domain"}, "B2": {"name": "β2(1–217): truncated sGC β2 heme domain (protein, UniProt O75343 1-217, looked up, fragment)", "chain": "MSGYDRMLRTLGGNLMEFIENLDALHSYLALSYQEMNAPSFRVERGADGKMFLHYYSDRSGLCHIVPGIIEAVAKDFFDIDVIMDILDMNEEVERTGKKEHVVFLIVQKAHRKMRKTKPKRLQDSQGMERDQEALQAAFLKMKEKYLNVSACPVKKSHWDVVRSIVMFGKGHLMNTFEPIYPERLWIEEKTFCNAFPFHIVFDESLQVKQARVNIQK", "modifications": "heme domain"}}, "key": {"sGC": {"test_system": "sGC", "details": "cited from earlier work; for kOFF / Kd: sGC"}, "ferrous Ns H-NOX": {"test_system": "ferrous Ns H-NOX", "assay": "CO and NO binding kinetics to ferrous Ns H-NOX", "set-up": "species or system Nostoc sp", "details": "for kOFF: 6c-CO complex / 1st 6c-NO complex, 20 – 25 °C"}, "ferric sGC": {"biological_target": "ferric sGC", "details": "cited from earlier work"}, "[1]": {"details": "ferrous, 37 °C; cited from earlier work"}}, "note": "Where two headings read alike, the source gives them in different places."}
{"molecule": "O=O", "note": "[O2, oxygen]", "values": [{"measurement": "O2 binding (comment)", "setting": "sGC", "value": "No O2 binding at 1 atm, 10 °C"}]}
{"molecule": "nitric oxide [NO]", "values": [{"measurement": "fraction of 5c NO-heme in final NO-heme complex", "setting": "ferrous Ns H-NOX; EPR, large excess (1 atm) of NO gas, wild type Ns H-NOX", "value": "~ 40%"}, {"measurement": "overall equilibrium affinity for NO relative to CO", "setting": "ferrous Ns H-NOX; Ns H-NOX", "value": "4 orders of magnitude"}, {"measurement": "kOFF", "setting": "ferrous Ns H-NOX; Ns H-NOX", "value": 0.05, "unit": "s⁻¹"}, {"measurement": "first order rate constant of 6c-NO to 5c-NO conversion, first phase", "setting": "ferrous Ns H-NOX; excess NO, independent of [NO]", "value": "~ 7 s^−1"}, {"measurement": "first order rate constant of 6c-NO to 5c-NO conversion, second phase", "setting": "ferrous Ns H-NOX; excess NO, independent of [NO]", "value": 0.3, "unit": "s⁻¹"}, {"measurement": "NO association rate constant for first 6c-NO complex", "setting": "ferrous Ns H-NOX; flow-flash, 436 and 418 nm, 24 °C", "value": "200 – 400 µM^−1s^−1 and ≈ 300 µM^−1s^−1"}, {"measurement": "NO dissociation first order rate constant, minor slow phase", "setting": "ferrous Ns H-NOX; initial 6c-NO complex mixed with 0.5 mM CO and 25 mM dithionite", "value": 0.007, "unit": "s⁻¹"}, {"measurement": "Kd", "setting": "ferrous Ns H-NOX; read-out: apparent Kd for first NO binding step", "value": "~0.00017", "unit": "µM"}, {"measurement": "kOFF", "setting": "sGC; 5c (off), 10 °C", "value": 0.0006, "unit": "s⁻¹"}, {"measurement": "Kd", "setting": "sGC; 10 °C, calculated as kOFF/kON", "value": "4.2e-06", "unit": "µM"}]}
{"molecule": "[N-]=[N+]=[N-]", "note": "[N3^−, azide]", "values": [{"measurement": "observed rate constant of azide binding", "setting": "ferric Ns H-NOX", "value": "~ 0.015 s^−1"}, {"measurement": "Kd", "setting": "ferric sGC", "value": 26000, "unit": "µM"}]}
{"molecule": "[C-]#[O+]", "note": "[CO, carbon monoxide]", "values": [{"measurement": "rate of reaction with CO, Ns H-NOX relative to sGC", "setting": "ferrous Ns H-NOX", "value": 100, "unit": "fold"}, {"measurement": "second-order rate constant of CO binding", "setting": "ferrous Ns H-NOX; 5 µM ferrous Ns H-NOX, [CO] 25 to 166 µM, 24 °C, two separately purified samples", "value": "2 – 3 × 10^6 M^−1s^−1"}, {"measurement": "Kd for CO binding, ratio koff/kon", "setting": "ferrous Ns H-NOX; 3.6 s^-1/3.0 µM^−1s^−1", "value": 1.2, "unit": "µM"}, {"measurement": "CO association rate constant (free linear fit)", "setting": "ferrous Ns H-NOX; 24 °C", "value": "2.9e+06", "unit": "M⁻¹ s⁻¹"}, {"measurement": "CO dissociation rate constant (koff) from y-axis intercept of kobs versus [CO]", "setting": "ferrous Ns H-NOX; 24 °C", "value": 23, "unit": "s⁻¹"}, {"measurement": "kOFF", "setting": "ferrous Ns H-NOX; Ns H-NOX", "value": 3.6, "unit": "s⁻¹"}, {"measurement": "Kd", "setting": "sGC; 4 °C", "value": 260, "unit": "µM"}, {"measurement": "kOFF", "setting": "sGC; 4 °C", "value": 10.7, "unit": "s⁻¹"}]}
{"molecule": "B1", "values": [{"measurement": "rate of autooxidation", "setting": "[1]", "value": 4.3, "unit": "h⁻¹"}]}
{"molecule": "B2", "values": [{"measurement": "rate of autooxidation", "setting": "[1]", "value": 0.18, "unit": "h⁻¹"}]}
